Series [1] relates to murine leukemia (L1210) cells. The series can be described thus: Cytostatic activity, L1210 cell proliferation. Type of series: cell-based. The conditions noted are these: Mus musculus, read-out: IC50 L1210. The method, then: (§1) All assays were performed in 96-well microtiter plates. To each well were added (5–7.5) × 10^4 tumor cells and a given amount of the test compound. The cells were allowed to proliferate for 48 h (murine leukemia L1210 cells) or 72 h (human lymphocytic CEM and human cervix carcinoma HeLa cells) at 37 °C in a humidified CO2-controlled atmosphere. At the end of the incubation period, the cells were counted in a Coulter counter.

Series [2] concerns human T-lymphocyte (CEM) cells. The series can be described thus: Cytostatic activity, CEM cell proliferation. Type of series: cell-based. The conditions noted are these: CCRF-CEM, 72 h, read-out: IC50 CEM. The method, then: as §1
Series [3] deals with human cervix carcinoma cells (HeLa). Put plainly: Cytostatic activity, HeLa cell proliferation. It counts as cell-based. The conditions noted are these: 72 h, read-out: IC50 HeLa. The method, then:
as §1

Series [4] concerns human dermal microvascular endothelial HMEC-1 cells. Put plainly: Cytostatic activity, HMEC-1 cell proliferation. It counts as cell-based.

Where two headings read alike, the source gives them in different places.

`C#CCN1C(=O)c2cccc3cccc(c23)C1=O` [Compound 7, 2-(Prop-2-yn-1-yl)-1H-benzo[de]isoquinoline-1,3(2H)-dione] yielded a melting point of 239 to 240 °C. Besides, the IC50 in series [1] (L1210, cell proliferation, 48 h) is > 250 µM. Further, the IC50 in series [2] (cell proliferation) was 206 ± 42 µM. Besides, the IC50 in series [3] (cell proliferation) was 48 ± 8 µM. The IC50 in series [4] (HMEC-1, cell proliferation, read-out: IC50 HMEC-1) came to 138 ± 38 µM.
`CCOP(=O)(Cn1cc(CN2C(=O)c3cccc4cccc(c34)C2=O)nn1)OCC` [Compound 14a] registered a melting point of 110 to 111 °C. Moreover, in series [1] (L1210, 48 h), the IC50 is > 250 µM. The IC50 in series [2] stood at 187 ± 25 µM. For the same molecule, in series [3], the IC50 was > 250 µM. The IC50 in series [4] (HMEC-1, read-out: IC50 HMEC-1) is > 250 µM.
As for `CCOP(=O)(CCn1cc(CN2C(=O)c3cccc4cccc(c34)C2=O)nn1)OCC` [Compound 14b, Diethyl 2-{4-[(1,3-Dioxo-1H-benzo[de]isoquinolin-2(3H)-yl)methyl]-1H-1,2,3-triazol-1-yl}ethylphosphonate], the melting point was 63 to 64 °C. The IC50 in series [1] (L1210, 48 h) was > 250 µM. Further, the IC50 in series [2] was found to be 148 ± 59 µM. Moreover, the IC50 in series [3] amounted to 204 ± 65 µM. Further, the IC50 in series [4] (HMEC-1, read-out: IC50 HMEC-1) is > 250 µM.
On to `CCOP(=O)(CC(O)Cn1cc(CN2C(=O)c3cccc4cccc(c34)C2=O)nn1)OCC` (stereo not shown) [Compound 14f, Diethyl 3-{4-[(1,3-Dioxo-1H-benzo[de]isoquinolin-2(3H)-yl)methyl]-1H-1,2,3-triazol-1-yl}-2-hydroxypropylphosphonate], for which the melting point is > 260 °C. Also, in series [1] (L1210, 48 h), the IC50 is > 250 µM. Besides, the IC50 in series [2] turned out to be 158 ± 4 µM. The IC50 in series [3] came out at 168 ± 26 µM. For the same molecule, in series [4] (HMEC-1, read-out: IC50 HMEC-1), the IC50 was > 250 µM.
As to `CCOP(=O)(COCCn1cc(CN2C(=O)c3cccc4cccc(c34)C2=O)nn1)OCC` [Compound 14g, Diethyl 2-{4-[(1,3-Dioxo-1H-benzo[de]isoquinolin-2(3H)-yl)methyl]-1H-1,2,3-triazol-1-yl}ethoxy-methylphosphonate], the melting point was in the range of 154 to 155 °C. In addition, the IC50 in series [1] (L1210, 48 h) is > 250 µM. Moreover, the IC50 in series [2] came to 168 ± 29 µM. For the same molecule, the IC50 in series [3] is 215 ± 49 µM. In addition, the IC50 in series [4] (HMEC-1, read-out: IC50 HMEC-1) was ≥ 250 µM.
Take `CCOP(=O)(CNC(=O)Cn1cc(CN2C(=O)c3cccc4cccc(c34)C2=O)nn1)OCC` [Compound 14i, Diethyl 2-{4-[(1,3-Dioxo-1H-benzo[de]isoquinolin-2(3H)-yl)methyl]-1H-1,2,3-triazol-1-yl}acetamido-methylphosphonate]: the melting point was in the range of 170 to 171 °C. Besides, in series [1] (L1210, 48 h), the IC50 is > 250 µM. Moreover, in series [2], the IC50 is ≥ 250 µM. Further, in series [3], the half-inhibitory concentration (IC50) was > 250 µM. The IC50 in series [4] (HMEC-1, read-out: IC50 HMEC-1) is > 250 µM.
Consider `CCOP(=O)(Cn1cc(CN2C(=O)c3cccc4c(Br)ccc(c34)C2=O)nn1)OCC` [Compound 15a, Diethyl {4-[(6-Bromo-1,3-dioxo-1H-benzo[de]isoquinolin-2(3H)-yl)methyl]-1H-1,2,3-triazol-1-yl}methylphosphonate], for which the melting point is 158 to 159 °C. Besides, the IC50 in series [1] (L1210, 48 h) was found to be 28 ± 1 µM. The IC50 in series [2] is 60 ± 27 µM. In addition, in series [3], the IC50 was 88 ± 5 µM. Moreover, in series [4] (HMEC-1, read-out: IC50 HMEC-1), the IC50 worked out at 185 ± 40 µM.
`CCOP(=O)(CCCn1cc(CN2C(=O)c3cccc4c(Br)ccc(c34)C2=O)nn1)OCC` [Compound 15c, Diethyl 3-{4-[(6-Bromo-1,3-dioxo-1H-benzo[de]isoquinolin-2(3H)-yl)methyl]-1H-1,2,3-triazol-1-yl}propylphosphonate] gave a melting point of 118 to 120 °C. The concentration for half-maximal inhibition (IC50) in series [1] (L1210, 48 h) was 20 ± 3 µM. For the same molecule, the IC50 in series [2] was determined as 52 ± 34 µM. The IC50 in series [3] was found to be 62 ± 1 µM. For the same molecule, in series [4] (HMEC-1, read-out: IC50 HMEC-1), the IC50 is 152 µM.
`CCOP(=O)(OCC)C(O)Cn1cc(CN2C(=O)c3cccc4c(Br)ccc(c34)C2=O)nn1` (stereo not shown) [Compound 15e, Diethyl 2-{4-[(6-Bromo-1,3-dioxo-1H-benzo[de]isoquinolin-2(3H)-yl)methyl]-1H-1,2,3-triazol-1-yl}-1-hydroxyethylphosphonate] came in with a melting point of 198 to 200 °C. In series [1] (L1210, 48 h), the IC50 came out at 42 ± 15 µM. In series [2], the IC50 is 196 ± 60 µM. For the same molecule, in series [3], the IC50 was > 250 µM. The IC50 in series [4] (HMEC-1, read-out: IC50 HMEC-1) was > 250 µM.
On to `CCOP(=O)(COCCn1cc(CN2C(=O)c3cccc4c(Br)ccc(c34)C2=O)nn1)OCC` [Compound 15g, Diethyl 2-{4-[(6-Bromo-1,3-dioxo-1H-benzo[de]isoquinolin-2(3H)-yl)methyl]-1H-1,2,3-triazol-1-yl}ethoxy-methylphosphonate], for which the IC50 in series [1] (L1210, 48 h) stood at 24 ± 3 µM; in series [2] it was 66 ± 20 µM; in series [3], 84 ± 16 µM; in series [4] (HMEC-1, read-out: IC50 HMEC-1) it was 152 ± 1 µM.
The molecule `CCOP(=O)(CNC(=O)Cn1cc(CN2C(=O)c3cccc4c(Br)ccc(c34)C2=O)nn1)OCC` [Compound 15i, Diethyl 2-{4-[(6-Bromo-1,3-dioxo-1H-benzo[de]isoquinolin-2(3H)-yl)methyl]-1H-1,2,3-triazol-1-yl}acetamido-methylphosphonate] came in with a melting point of 173 to 174 °C. The IC50 in series [1] (L1210, 48 h) came out at 31 ± 2 µM. Besides, in series [2], the concentration for half-maximal inhibition (IC50) turned out to be 137 ± 72 µM. The IC50 in series [3] is > 250 µM. Further, the IC50 in series [4] (HMEC-1, read-out: IC50 HMEC-1) is > 250 µM.
Turning to `CCOP(=O)(Cn1cc(CN2C(=O)c3cccc4cc(N)cc(c34)C2=O)nn1)OCC` [Compound 17a, Diethyl {4-[(5-Amino-1,3-dioxo-1H-benzo[de]isoquinolin-2(3H)-yl)methyl]-1H-1,2,3-triazol-1-yl}methylphosphonate], the IC50 amounted to 177 ± 76 µM in series [1] (L1210, 48 h); 214 ± 5 µM in series [2]; 101 ± 78 µM in series [3].
For `CCOP(=O)(CCn1cc(CN2C(=O)c3cccc4cc(N)cc(c34)C2=O)nn1)OCC` [Compound 17b, Diethyl 2-{4-[(5-Amino-1,3-dioxo-1H-benzo[de]isoquinolin-2(3H)-yl)methyl]-1H-1,2,3-triazol-1-yl}ethylphosphonate], the IC50 in series [1] (L1210, 48 h) is > 250 µM; in series [2], 120 ± 7 µM; in series [3], 69 ± 12 µM.
For the molecule `CCOP(=O)(CCCn1cc(CN2C(=O)c3cccc4cc(N)cc(c34)C2=O)nn1)OCC` [Compound 17c, Diethyl 3-{4-[(5-Amino-1,3-dioxo-1H-benzo[de]isoquinolin-2(3H)-yl)methyl]-1H-1,2,3-triazol-1-yl}propylphosphonate], the melting point lay in the range of 180 to 182 °C. Further, the IC50 in series [1] (L1210, 48 h) is > 250 µM. Also, the IC50 in series [2] is ≥ 250 µM. In series [3], the IC50 was ≥ 250 µM.
With `CCOP(=O)(CCCCn1cc(CN2C(=O)c3cccc4cc(N)cc(c34)C2=O)nn1)OCC` [Compound 17d, Diethyl 4-{4-[(5-Amino-1,3-dioxo-1H-benzo[de]isoquinolin-2(3H)-yl)methyl]-1H-1,2,3-triazol-1-yl}butylphosphonate], the melting point lay in the range of 218 to 220 °C. In series [1] (L1210, 48 h), the IC50 is > 250 µM. Also, the IC50 in series [2] is > 250 µM. In addition, the IC50 in series [3] turned out to be 116 ± 60 µM.
`CCOP(=O)(OCC)C(O)Cn1cc(CN2C(=O)c3cccc4cc(N)cc(c34)C2=O)nn1` (stereo not shown) [Compound 17e, Diethyl 2-{4-[(5-Amino-1,3-dioxo-1H-benzo[de]isoquinolin-2(3H)-yl)methyl]-1H-1,2,3-triazol-1-yl}-1-hydroxyethylphosphonate] came in with a melting point of 170 to 172 °C. The IC50 in series [1] (L1210, 48 h) was > 250 µM. The IC50 in series [2] is > 250 µM. The IC50 in series [3] was 72 ± 58 µM.
`CCOP(=O)(CC(O)Cn1cc(CN2C(=O)c3cccc4cc(N)cc(c34)C2=O)nn1)OCC` (stereo not shown) [Compound 17f, Diethyl 3-{4-[(5-Amino-1,3-dioxo-1H-benzo[de]isoquinolin-2(3H)-yl)methyl]-1H-1,2,3-triazol-1-yl}-2-hydroxypropylphosphonate]: the melting point is 222 to 224 °C. For the same molecule, the IC50 in series [1] (L1210, 48 h) is > 250 µM. Moreover, in series [2], the IC50 was > 250 µM. The IC50 in series [3] was 130 ± 77 µM.
Turning to `CCOP(=O)(COCCn1cc(CN2C(=O)c3cccc4cc(N)cc(c34)C2=O)nn1)OCC` [Compound 17g, Diethyl 2-{4-[(5-Amino-1,3-dioxo-1H-benzo[de]isoquinolin-2(3H)-yl)methyl]-1H-1,2,3-triazol-1-yl}ethoxy-methylphosphonate], the melting point was in the range of 221 to 223 °C. Besides, the IC50 in series [1] (L1210, 48 h) is > 250 µM. In series [2], the IC50 is > 250 µM. In series [3], the IC50 amounted to 97 ± 42 µM.
`CCOP(=O)(CCOCCn1cc(CN2C(=O)c3cccc4cc(N)cc(c34)C2=O)nn1)OCC` [Compound 17h, Diethyl 2-(2-{4-[(5-Amino-1,3-dioxo-1H-benzo[de]isoquinolin-2(3H)-yl)methyl]-1H-1,2,3-triazol-1-yl}ethoxy)ethylphosphonate] registered a melting point of 180 to 183 °C. Further, the IC50 in series [1] (L1210, 48 h) worked out at 142 ± 2 µM. For the same molecule, the IC50 in series [2] is 109 ± 3 µM. Besides, the IC50 in series [3] was 66 ± 3 µM.
`CCOP(=O)(CNC(=O)Cn1cc(CN2C(=O)c3cccc4cc(N)cc(c34)C2=O)nn1)OCC` [Compound 17i, Diethyl 2-{4-[(5-Amino-1,3-dioxo-1H-benzo[de]isoquinolin-2(3H)-yl)methyl]-1H-1,2,3-triazol-1-yl}acetamido-methylphosphonate] came in with a melting point of 222 to 224 °C. Moreover, the IC50 in series [1] (L1210, 48 h) was > 250 µM. Besides, the IC50 in series [2] is > 250 µM. Moreover, in series [3], the IC50 was determined as 112 ± 58 µM.

(Values after PMC6273621, “Synthesis and the Biological Activity of Phosphonylated 1,2,3-Triazolenaphthalimide Conjugates” (Molecules, 2016).)
